# Values quoted from earlier work as cited in patent US10335452B2, “Method of treating patients with hepatorenal syndrome type 1” (Mallinckrodt Hospital Products IP Limited, priority 2014, dated 2019).
# Positions of bridges follow the written chain, without caps; N, C: chain ends. Residues, ends and D or L forms follow the SMILES beside them.
# Tests used:
# HRS-1 patients = details: each listed reaction occurred in more than this share of patients
# [1] = in vivo
smiles,measurement,setting,value
"NCCCC[C@H](NC(=O)[C@@H]1CCCN1C(=O)[C@@H]1CSSC[C@H](NC(=O)CNC(=O)CNC(=O)CN)C(=O)N[C@@H](Cc2ccc(O)cc2)C(=O)N[C@@H](Cc2ccccc2)C(=O)N[C@@H](CCC(N)=O)C(=O)N[C@@H](CC(N)=O)C(=O)N1)C(=O)NCC(N)=O [terlipressin, N—[N—(N-glycylglycyl)glycyl]-8-L-lysinevasopressin] (H-GGGCYFQNCPKG-NH2; disulfide 4-9 (inferred))","Adverse reaction, share of patients (vomiting, abdominal pain, nausea, diarrhea, intestinal ischemia, dyspnea, sneezing, pulmonary edema and fluid overload)",HRS-1 patients,more than 10%
same,duration of action,[1],2 to 10 h
NC(=O)CC[C@@H]1NC(=O)[C@H](Cc2ccccc2)NC(=O)[C@H](Cc2ccc(O)cc2)NC(=O)[C@@H](N)CSSC[C@@H](C(=O)N2CCC[C@H]2C(=O)N[C@@H](CCCN=C(N)N)C(=O)NCC(N)=O)NC(=O)[C@H](CC(N)=O)NC1=O [vasopressin],duration of action,[1],0.5 to 1 h
